Measurements reported in patent US20170334899A1, “AMINO-SUBSTITUTED ISOTHIAZOLES” (Bayer Pharma Aktiengesellschaft, priority 2014, published 2017).
pIC50: −log10 of the molar value.

Tested on: HeLa
Assay: Proliferation assay (crystal violet), HeLa
Format: cell-based
Details: Homo sapiens, HeLa, 96 h, HeLa cells; 4 days incubation; crystal violet staining; read-out: IC50 inhibition of proliferation, HeLa
In short: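 Cells plated at 1000-5000/well with 10% FCS, treated after 24 h with compound at 0.001-10 μM (0.5% DMSO) for 4 days. Glutaraldehyde-fixed, crystal violet-stained, A595 normalised to zero-point plate (0%) and untreated cells (100%); IC50 by 4-parameter fit.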

SMILES | pIC50
Cc1nsc(Nc2cnc(C(F)(F)F)cn2)c1C(=O)Nc1ccc(OCC2CCN(CCF)C2)nc1 (stereo not shown) [Example 121, N-(6-{[1-(2-fluoroethyl)pyrrolidin-3-yl]methoxy}pyridin-3-yl)-3-methyl-5-{[5-(trifluoromethyl)pyrazin-2-yl]amino}-1,2-thiazole-4-carboxamide] | 6.09
Cc1nsc(Nc2cnc(C(F)(F)F)cn2)c1C(=O)Nc1ccc(OCC2CCN(CC(F)F)C2)nc1 (stereo not shown) [Example 122, N-(6-{[1-(2,2-difluoroethyl)pyrrolidin-3-yl]methoxy}pyridin-3-yl)-3-methyl-5-{[5-(trifluoromethyl)pyrazin-2-yl]amino}-1,2-thiazole-4-carboxamide] | 6.55
Cc1nsc(Nc2cnc(C(F)(F)F)cn2)c1C(=O)Nc1ccc(OCC2CCN(CC(F)(F)F)C2)nc1 (stereo not shown) [Example 123, 3-Methyl-N-(6-{[1-(2,2,2-trifluoroethyl)pyrrolidin-3-yl]methoxy}pyridin-3-yl)-5-{[5-(trifluoromethyl)pyrazin-2-yl]amino}-1,2-thiazole-4-carboxamide] | 6.89
Cc1nsc(Nc2cnc(C(F)(F)F)cn2)c1C(=O)Nc1ccc(OCC2CCN(CCC(F)(F)F)C2)nc1 (stereo not shown) [Example 124, 3-methyl-5-{[5-(trifluoromethyl)pyrazin-2-yl]amino}-N-(6-{[1-(3,3,3-trifluoropropyl)pyrrolidin-3-yl]methoxy}pyridin-3-yl)-1,2-thiazole-4-carboxamide] | 6.44
Cc1nsc(Nc2cnc(C(F)(F)F)cn2)c1C(=O)Nc1ccc(OC[C@@H]2CCN(CC(F)F)C2)nc1 [Example 127, N-(6-{[(3R)-1-(2,2-difluoroethyl)pyrrolidin-3-yl]methoxy}pyridin-3-yl)-3-methyl-5-{[5-(trifluoromethyl)pyrazin-2-yl]amino}-1,2-thiazole-4-carboxamide] | 6.34
Cc1nsc(Nc2cnc(C(F)(F)F)cn2)c1C(=O)Nc1ccc(OC[C@@H]2CCN(CC(F)(F)F)C2)nc1 [Example 128, 3-Methyl-N-(6-{[(3R)-1-(2,2,2-trifluoroethyl)pyrrolidin-3-yl]methoxy}pyridin-3-yl)-5-{[5-(trifluoromethyl)pyrazin-2-yl]amino}-1,2-thiazole-4-carboxamide] | 6.64
Cc1nsc(Nc2cnc(C(F)(F)F)cn2)c1C(=O)Nc1ccc(OC[C@@H]2CCN(CCC(F)(F)F)C2)nc1 [Example 129, 3-Methyl-5-{[5-(trifluoromethyl)pyrazin-2-yl]amino}-N-(6-{[(3R)-1-(3,3,3-trifluoropropyl)pyrrolidin-3-yl]methoxy}pyridin-3-yl)-1,2-thiazole-4-carboxamide] | 6.60
Cc1nsc(Nc2cnc(C(F)(F)F)cn2)c1C(=O)Nc1ccc(OC[C@H]2CCN(CC(F)F)C2)nc1 [Example 132, N-(6-{[(3S)-1-(2,2-difluoroethyl)pyrrolidin-3-yl]methoxy}pyridin-3-yl)-3-methyl-5-{[5-(trifluoromethyl)pyrazin-2-yl]amino}-1,2-thiazole-4-carboxamide] | 6.35
Cc1nsc(Nc2cnc(C(F)(F)F)cn2)c1C(=O)Nc1ccc(OC[C@H]2CCN(CCC(F)(F)F)C2)nc1 [Example 134, 3-Methyl-5-{[5-(trifluoromethyl)pyrazin-2-yl]amino}-N-(6-{[(3S)-1-(3,3,3-trifluoropropyl)pyrrolidin-3-yl]methoxy}pyridin-3-yl)-1,2-thiazole-4-carboxamide] | 6.35
Cc1nsc(Nc2cnc(C(F)(F)F)cn2)c1C(=O)Nc1ccc(O[C@@H]2CCN(CC(F)F)C[C@@H]2F)nc1 [Example 137, N-(6-{[(3S,4R)-1-(2,2-difluoroethyl)-3-fluoropiperidin-4-yl]oxy}pyridin-3-yl)-3-methyl-5-{[5-(trifluoromethyl)pyrazin-2-yl]amino}-1,2-thiazole-4-carboxamide] | 6.74
